In patent US8609413B2, “Neurons, astrocytes and oligodendrocytes differentiated from a mammalian pluripotent or neural stem cells exposed to a pyridine deriviative” (Research Development Foundation, priority 2007, dated 2013):
Entries after “also recorded” stand apart in the source; their conditions may differ.

What was measured:
H1 human ES cells [1] = experiment: Neuronal differentiation of human ES cells, differentiation protocol 1; format: cell-based; conditions: vs DMSO
Method: Two different protocols were used to induce neuronal differentiation of human ES cells. In the first protocol, human ES cells were mechanically dissociated into small aggregates and plated on laminin/polyornithine coated six-well plates. Cells were cultured 2 weeks in human SR medium (DMEM F-12 supplemented with 15% knockout serum (Gibco), non-essential amino acids, penicillin and streptomycin), followed by 4 weeks in N2 medium. Compounds were added throughout these first 6 weeks. Subsequently, cells were mechanically dissociated and replated on polyornithine/laminin-coated 6 well plates. Throughout the text, this first differentiation protocol will be referred to as “differentiation protocol 1”. The second differentiation protocol was derived from previously described differentiation conditions (Nat et al., 2007). In the second differentiation protocol, undifferentiated human ES cells were mechanically dissociated into small aggregates and cultured in suspension on low-attachment six-well plates. For the first 4 days, they were cultured in neuronal induction medium (DMEM F-12, N2 supplement, penicillin and streptomycin), which was changed to simple neuronal proliferation medium (DMEM F-12, N2 supplement, 20 ng/ml bFGF, penicillin and streptomycin) for 2 additional days. […]
Immunostaining quantification. Immunostaining and nuclear staining quantifications were performed using the MetaXpress software (Molecular devices). Total neurite outgrowth was quantified using the neurite outgrowth analysis module, and total cell numbers were quantified with the count nuclei analysis module.
Phenazopyridine enhances neuronal differentiation of human ES cells. […] After 8 weeks of differentiation, the DMSO-treated cell population was highly heterogeneous as assessed by immunostaining for β3-tubulin, nestin, vimentin and GFAP. […] To quantify neuronal differentiation, the inventors chose to measure total neurite outgrowth and divided it by total cell number at different time points in three independent experiments (FIG. 7A).

H1 human ES cells [2] = experiment: Neuronal differentiation of human ES cells, differentiation protocol 2 (clinical grade protocol); format: cell-based
Method: Undifferentiated human H1 ES cells were cultured on irradiated mouse embryonic fibroblasts (MEF). To carry out neuronal differentiation, ES cells were mechanically dissociated into small aggregates (50-300 cells) and cultured in suspension on low-attachment six-well plates. For the first 4 days, the cells were cultured in neuronal induction medium (DMEM F-12 (Gibco), N2 supplement (Gibco), penicillin and streptomycin (Gibco), phenazopyridine 3:M). Then the medium was changed to simple neuronal proliferation medium (DMEM F-12, N2 supplement, 20 ng/ml human recombinant bFGF, penicillin and streptomycin, phenazopyridine 3:M) for 2 additional days. Subsequently, 15-20 6-day old cell aggregates were plated on polyornithine/laminin-coated six-well plates and maintained in simple neuronal proliferation medium for 7 days. Cells were then mechanically dissociated and replated in N2 medium (DMEM high glucose (Gibco), 10 ng/ml human recombinant bFGF (Gibco), N2 supplement (Gibco), penicillin and streptomycin (Gibco)) at a density of 20,000 cells per cm^2 on polyornithine/laminin-coated six-well plate. Cells were passaged when they reached 80-90% confluency, and were maintained in the same culture conditions for 2 additional weeks. Stock phenazopyridine (Microsource Discovery Inc.) was prepared by diluting phenazopyridine powder in DMSO (Sigma-Aldrich) at a concentration of 6 mM. The stock solution was diluted at 1:2000 in cell culture media to obtain a final concentration of 3:M Each of the components of the neuronal induction medium, the simple neuronal proliferation medium and the N2 medium can be replaced with clinical grade equivalents. Therefore, the foregoing procedure of carrying out neuronal differentiation is referred to herein as the “clinical grade protocol.”
The effects of phenazopyridine on ES cell differentiation were investigated using the clinical grade-compatible protocol. The first step involved generation of spheres of cells grown in suspension for 6 days, followed by replating on polyornithine/laminin coated plastic. One week later, cells were passaged at 2×10^4 cells/cm^2 on polyornithine/laminin coated plastic, and during the following two weeks cells were passaged when they reached 80-90% confluency. Cells were treated with either DMSO (1:2000) or with phenazopyridine (PAP) at 3:M with equivalent final DMSO concentration throughout the 4 week period.
Two different protocols were used to induce neuronal differentiation of human ES cells. In the first protocol, human ES cells were mechanically dissociated into small aggregates and plated on laminin/polyornithine coated six-well plates. Cells were cultured 2 weeks in human SR medium (DMEM F-12 supplemented with 15% knockout serum (Gibco), non-essential amino acids, penicillin and streptomycin), followed by 4 weeks in N2 medium. Compounds were added throughout these first 6 weeks. Subsequently, cells were mechanically dissociated and replated on polyornithine/laminin-coated 6 well plates. Throughout the text, this first differentiation protocol will be referred to as “differentiation protocol 1”. The second differentiation protocol was derived from previously described differentiation conditions (Nat et al., 2007). In the second differentiation protocol, undifferentiated human ES cells were mechanically dissociated into small aggregates and cultured in suspension on low-attachment six-well plates. For the first 4 days, they were cultured in neuronal induction medium (DMEM F-12, N2 supplement, penicillin and streptomycin), which was changed to simple neuronal proliferation medium (DMEM F-12, N2 supplement, 20 ng/ml bFGF, penicillin and streptomycin) for 2 additional days. Subsequently, aggregates were plated on polyornithine/laminin-coated six-well plates and maintained in simple neuronal proliferation medium for 7 days. Cells were then mechanically dissociated and replated in N2 medium at a density of 2×10^4 cells per cm^2 for two additional weeks.

[3] = 3 μM, four weeks of differentiation

Nc1ccc(/N=N/c2ccccc2)c(N)n1 [phenazopyridine]
total neurite outgrowth divided by total cell number (efficiency of differentiation into mature neurons) (H1 human ES cells [1]; 3 μM for first 6 weeks, three independent experiments, p=0.045): always superior to DMSO-treated cells
homogeneity of cell population by immunostaining (β3-tubulin, nestin, vimentin, GFAP) (H1 human ES cells [1]; after 8 weeks of differentiation): more homogeneous, most cells being positive for nestin, β3-tubulin, and vimentin, with occasional neuronal networks
formation of neuronal networks (H1 human ES cells [1]; after 10 weeks): further neuronal networks formed
dissociation after mechanical passaging (H1 human ES cells [2]; 3 μM vs DMSO): could easily be dissociated into single cells
percentage of living single cells by trypan blue exclusion (survival of dissociated cells) (H1 human ES cells [2]; 3 μM vs DMSO, at passaging at different time points): promotes survival of dissociated cells
sphere morphology after one week of differentiation (H1 human ES cells [2]; 3 μM vs DMSO, phase contrast): No apparent difference; also recorded: morphologically indistinct
sphere morphology at two weeks of differentiation (H1 human ES cells [2]; 3 μM vs DMSO, phase contrast): developed into big areas of monolayer surrounding the plated spheres; also recorded: developed bigger areas of monolayer at their periphery
neuronal marker phenotype by immunostaining (H1 human ES cells [2]; 3 μM, after four weeks of differentiation): Virtually all cells were nestin, Sox 1 and vimentin-positive, expressed β3-tubulin and Pax6 at low levels, and were negative for musashi
cells nestin-positive with low levels of β3-tubulin (early neuronal precursors) (H1 human ES cells [2]; [3]): approximately 98%
non-neural cells (nestin and β3-tubulin negative) or differentiated neurons (β3-tubulin only) (H1 human ES cells [2]; [3]): no non-neural cells or differentiated neurons were observed
mitotic figures and PCNA-positive cells in monolayer area (H1 human ES cells [2]; 3 μM, two weeks, vs DMSO): many mitotic figures and PCNA-positive cells
